Drawing on PubChem BioAssay AID602211 (Sanford-Burnham Center for Chemical Genomics, 2012), this text covers IC50 for 83 compounds.

The structures appear in SMILES notation. The source made the active and inactive calls.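 The calls were made as follows: active = mean IC50 at or below 10 µM; inactive = the rest.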

The subject of this assay is H9c2 cardiomyocytes, H2O2 protection, ATPLite viability, 2 h. Nature of the assay: protection of H9c2 cardiomyocytes from H2O2 death, dose response, cell-based, ATPLite luminescence, set 2 (AID 602211).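 Also: potency is for protection so actives keep ATP signal up against peroxide killing.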
In the case of `NS(=O)(=O)c1ccc(CCNC(=O)c2ccc(C#CC3(O)CCCCC3)cc2)cc1`, the IC50 (as a rule, the point on the concentration scale where inhibition reaches its midpoint) is > 79 µM (inactive). As for `COc1cc(C(=O)N/N=C/c2sc(N3CCOCC3)nc2-c2ccccc2)cc(OC)c1OC`, the figure is 16.9 µM (inactive); as for `CC(=O)c1ccc(-c2ccc(C(=O)Nc3nc(-c4ccccn4)cs3)o2)cc1`, 1.57 µM. As for `COc1ccccc1-c1cc(NC=O)c2ncc(-c3cccc(C(C)=O)c3)n2c1`, the figure is 8.53 µM; as for `COc1ccccc1NC(=O)COc1ccc(/C=N/NC(=O)c2cccnc2)cc1`, 9.9 µM.

For the compound `CCOC(=O)C1CCN(c2cc3c(cc2NC(=O)c2ccc(F)cc2)n(C)c(=O)n3C)CC1`, the IC50 is 25.8 µM (inactive). On to `CCOC(=O)c1ccc(-c2ccc3ncnc(NCc4csc(C)n4)c3c2)o1`, for which the IC50 was > 79 µM (inactive).

On to `COc1ccc(-c2cc(NC(C)=O)c3ncc(-c4cccc(C(C)=O)c4)n3c2)cc1OC`, for which the IC50 is 7.18 µM.

As to `O=C(N/N=C/c1ccccn1)c1[nH]c2ccc([N+](=O)[O-])cc2c1-c1ccccc1`, the IC50 is 2.33 µM. With `O=C(CN1CCCCC1)Nc1nc(-c2ccc(F)c(F)c2)cs1`, the IC50 was > 79 µM (inactive). As for `COc1ccc(C(=O)Nc2cccc(/C(C)=N/NC(=O)c3ccc([N+](=O)[O-])c(C)c3)c2)cc1OC`, the figure is 4.93 µM; as for `COc1ccc(OC)c(NC(=O)COC(=O)c2c3c(nc4ccccc24)CCCC3)c1`, 1.15 µM. As for `CCOC(=O)C1=C(COC(=O)c2cc(OC)c(OC)c(OC)c2)NC(=O)NC1C` (stereo not drawn), the figure is 5.68 µM.

With `COC(=O)c1cccc(Nc2nc(-c3cccnc3)nc3ccccc23)c1`, the IC50 is 7.12 µM. As to `COCCn1ccc2c(OCC(=O)Nc3ccccc3OC)cccc2c1=O`, the IC50 is > 79 µM (inactive). With `C[C@H](NC(=O)c1nc[nH]c1C(=O)NCC(=O)OCc1ccccc1)c1ccccc1`, the IC50 was 1.6 µM. In the case of `CCCOc1ccc2[nH]c(C(=O)N/N=C/c3cc(OC)c(OC)c(OC)c3)cc2c1`, the IC50 is 4.04 µM. For `COc1cccc(C(=O)Nc2c(C(N)=O)oc3ccccc23)c1` the value was 8.36 µM; for `C[C@H]1Cn2cnc(C(=O)N[C@@H](Cc3c[nH]c4ccccc34)C(=O)OC(C)(C)C)c2C(=O)N1`, 24.1 µM (inactive). As for `COc1ccc2occ(C(=O)c3coc4ccc(O)c(CN(C)C)c34)c2c1`, the figure is 4.32 µM. For `COc1ccc(CCNC(=O)C(=O)NCC2CCCN2S(=O)(=O)c2ccccc2)cc1OC` (stereo not drawn) the value was 6.18 µM; for `COC(=O)c1ccc(C(C(=O)NCc2ccccc2)N(Cc2cccs2)C(=O)c2cnccn2)cc1` (stereo not drawn), 5.53 µM. For `COc1ccc(-c2csc(NC(=O)CCCc3nc4ccccc4c(=O)[nH]3)n2)cc1OC`, the IC50 is 3.42 µM. As for `COC(=O)c1cc2c(-c3ccccc3)cc3ccccn3c-2c1C(=O)OC`, the figure is 6.44 µM. As for `COc1cc(OC)cc(-c2cc3nc(C)c(CCC(=O)Nc4nc(C)cs4)c(C)n3n2)c1`, the figure is 4.8 µM; as for `Clc1ccccc1-c1nc(N/N=C/c2cccnc2)c2ccccc2n1`, 7.3 µM; as for `COC(=O)c1ccccc1NC(=O)c1nc2nc(C)cc(C)n2n1`, 31.2 µM (inactive). As for `C=CC[C@@H](CC(=O)N[C@H](CO)Cc1ccccc1)C(=O)N[C@@H](COC(=O)[C@@H](CC=C)CC(=O)OC(C)(C)C)Cc1ccccc1`, the figure is 12.3 µM (inactive); as for `COc1ccc(-c2cc(C(=O)N(C)Cc3ccccc3F)c3ccccc3n2)cc1OC`, > 79 µM (inactive).

`COc1ccc(COc2cc(-c3cccc(OC)c3)nc3ccc(NC(=O)c4cccnc4)cc23)cc1`: the IC50 was 2.36 µM. In the case of `CC(=O)Nc1cc(-c2cccc(C(=O)N(C)C)c2)cn2c(-c3ccc(C(C)=O)cc3)cnc12`, the half-maximal inhibitory concentration (IC50) was 7.78 µM. Regarding `COC(=O)c1ccc(C(=O)OC)c(NC(=O)COC(=O)C23CC4CC(CC(O)(C4)C2)C3)c1`, the IC50 was 3.4 µM. Consider `COC(=O)c1cc(NC(=O)Nc2cc(OC)ccc2OC)cc(C(=O)OC)c1`, for which the IC50 was 22.3 µM (inactive).

For the compound `COc1ccc(-c2csc(NC(=O)c3cccc(N4C(=O)CCC4=O)c3)n2)cc1OC`, the IC50 is 5 µM.

Regarding `NC(=O)c1nsc(C(=O)N(Cc2ccco2)C(C(=O)NCc2ccccc2)c2ccc(O)cc2)c1N` (stereo not drawn), the half-maximal inhibitory concentration (IC50) is 9.87 µM. As for `CC(C)(C)OC(=O)C[C@H]1C/C=C\C[C@H](CC(=O)N[C@H](CO)Cc2ccccc2)C(=O)N[C@H](Cc2ccccc2)COC1=O`, the figure is 6.31 µM; as for `Cn1c(=O)[nH]c(=O)c2c1nc(N(CCO)Cc1ccccc1)n2CCCc1ccccc1`, 11.3 µM (inactive). As for `COc1ccc(-c2cc(C(=O)NNC(=O)c3csc(N4CCOCC4)n3)c3ccccc3n2)cc1`, the IC50 was 14.1 µM (inactive). Take `O=C1NC(Cc2ccc(O)cc2)c2nc3ccc(F)cc3c(=O)n2-c2cc3ccccc3cc21` (stereo not drawn): the IC50 is 3.72 µM.

As to `COCc1c(C(=O)Nc2ccc3nc(N4CCOCC4)sc3c2)oc2ccccc12`, the IC50 is > 79 µM (inactive). For `CC(=O)Nc1ccc(-c2csc(NC(=O)Nc3ccccc3)n2)cc1` the value was 40.6 µM (inactive).

Regarding `Cc1cccc(NC(=O)c2cc(-c3ccco3)nc3ccccc23)n1`, the IC50 was 8.15 µM. As for `CC(C)C1Nc2ccc(C(=O)N3CCN(c4ccccn4)CC3)cc2NC1=O` (stereo not drawn), the figure is 22.9 µM (inactive); as for `CC(C)(C)OC(=O)N1CCC(NC(=O)c2nc[nH]c2C(=O)NCC(=O)OCc2ccccc2)CC1`, 1.08 µM.

Consider `O=S(=O)(c1ccccc1)N1CCN(c2nc(-c3cccnc3)nc3ccccc23)CC1`, for which the IC50 was 4.54 µM. In the case of `COc1ccccc1CN(C)C(=O)c1cc(-c2cc(OC)c(OC)c(OC)c2)nc2ccccc12`, the IC50 was > 79 µM (inactive).

Consider `O=CNc1cc(-c2ccc(C(=O)NC3CC3)cc2)cn2c(-c3ccc(F)c(Cl)c3)cnc12`, for which the IC50 was 5.46 µM. For `O=C(COC(=O)c1cc(-c2cccnc2)nc2ccccc12)Nc1ccc(F)cc1F` the value was 17.8 µM (inactive); for `COc1ccc(N/C=C(\C#N)c2nc3ccccc3n2C)c(OC)c1`, 3.73 µM.

For `O=C(Nc1cccnc1)c1sc(Nc2ccccc2)nc1-c1ccccc1`, the IC50 is 8.72 µM. For `CC(=O)N1CCN(c2ccccc2NC(=O)c2ccc(-c3cccc([N+](=O)[O-])c3)o2)CC1` the value was 23.7 µM (inactive). As for `COc1cccc(/C=N/NC(=O)c2ccncc2)c1OC(=O)c1ccc(Br)cc1`, the figure is 15.4 µM (inactive); as for `COc1ccc(-c2cc(NC=O)c3ncc(-c4ccc(C(C)=O)cc4)n3c2)cn1`, 4.52 µM. As for `CCN(CC)C(=O)c1ccc2c3c(cccc13)C(=O)N(CCc1ccc(OC)c(OC)c1)C2=O`, the figure is > 79 µM (inactive); as for `CC(=O)Nc1ccc(S(=O)(=O)N(Cc2cccnc2)Cc2cc3ccccc3[nH]c2=O)cc1`, 1.51 µM. For the compound `COc1cc(-c2cc(NC=O)c3ncc(-c4ccccc4)n3c2)cc(OC)c1OC`, the IC50 was > 79 µM (inactive). For `CN(C)C(=O)/C=C\c1cn(-c2ccccc2)nc1-c1ccc2c(c1)OCCO2` the value was > 79 µM (inactive); for `CCOC(=O)c1cc2c(=O)n3cccc(C)c3nc2n(CCCOC)c1=NC(=O)c1cccnc1`, 2.87 µM; for `CCOC(=O)C1CCN(c2cc3c(cc2NC(=O)c2ccccc2)n(C)c(=O)n3C)CC1`, 5.18 µM. For `Cc1nn(-c2ccccc2)c(C)c1/C=N/NC(=O)c1cc(C(C)(C)C)[nH]n1` the value was 26.5 µM (inactive); for `CCc1nc2ccc(C(=O)Nc3cc(-c4ccccc4)ccc3OC)cn2c1N(C)Cc1nccs1`, 5.95 µM.

With `COc1ccc(COc2cc(-c3cccc(OC)c3)nc3ccc(NC(=O)c4ccc(OC)cc4)cc23)cc1`, the concentration for half-maximal inhibition (IC50) is 2.42 µM.

Take `CC(C)(C)OC(=O)NCc1ccc(NC(=O)c2nc[nH]c2C(=O)NCCCCCCNC(=O)c2[nH]cnc2C(=O)Nc2ccc(CNC(=O)OC(C)(C)C)cc2)cc1`: the IC50 was > 79 µM (inactive). Take `Cc1nc(NC(=O)c2cc3c(C)nn(-c4ccccc4)c3s2)sc1C(=O)Nc1ccccc1`: the 50% inhibitory concentration (IC50) was 2.7 µM. As for `COc1cccc(/C=N/NC(=O)c2nc(-c3ccccc3)cc(-c3ccccc3)n2)c1`, the figure is 1.61 µM; as for `Cc1ccc(S(=O)(=O)N2CCN(C(=O)c3cc(=O)[nH]c4ccccc34)CC2)c(C)c1`, 2.24 µM; as for `CCOC(=O)c1ccc(-c2ccc(/C=C(\C#N)C(=O)NCC3CCCO3)o2)cc1` (stereo not drawn), > 79 µM (inactive). For `COC(=O)C1=C(C)N(CCc2ccc(OC)cc2)C(=O)C1` the value was 21.9 µM (inactive). With `COc1ccc(C(=O)Nc2nc(-c3ccccn3)cs2)cc1S(=O)(=O)N1CCOCC1`, the IC50 was 11.9 µM (inactive). For `NC(=O)COc1ccc2oc(=O)cc(-c3cc4ccccc4o3)c2c1` the value was 9.93 µM. For `O=c1c2ccccc2nc(CSc2ncnc3nc[nH]c23)n1-c1ccc(Cl)c(Cl)c1` the value was 4.13 µM; for `c1cncc(-c2nc(NCC3COc4ccccc4O3)c3ccccc3n2)c1` (stereo not drawn), > 79 µM (inactive).

For the compound `COc1cc(-c2cc3nc(NCCc4ccc(S(N)(=O)=O)cc4)ccn3n2)cc(OC)c1OC`, the IC50 was 12.1 µM (inactive).

Turning to `COc1cccc(Nc2nc3ccccc3n3nnnc23)c1`, the IC50 was > 79 µM (inactive). For `COc1cccc2cc(-c3cc(=O)oc4ccc(OCC(C)=O)cc34)oc12` the value was 3.21 µM; for `CCn1c(O)c(/C=N/N=C/c2ccccc2)c2ccc(C3=NNC(=O)CC3)cc21`, 4.56 µM; for `CC(C)c1cc(N2CCN(C(=O)c3ccco3)CC2)n2c(nc3ccccc32)c1C#N`, 44.8 µM (inactive).

Take `C[C@@H](NC(=O)c1nc[nH]c1C(=O)NCC(=O)OCc1ccccc1)c1ccccc1`: the IC50 is 51.6 µM (inactive).

With `O=CNc1cc(-c2ccc(C(=O)NC3CC3)cc2)cn2c(-c3ccccc3)cnc12`, the IC50 was 10.3 µM (inactive).

With `COc1ccc(Nc2nnc(SCc3cc(=O)n4ccsc4n3)s2)cc1`, the half-inhibitory concentration (IC50) is 8.23 µM. As for `CCCCCCn1c(C)nc2c(c1=O)c1nc3ccccc3nc1n2/N=C/c1ccco1`, the figure is 4.85 µM; as for `COc1ccc(-c2cc(-c3ccc(O)cc3)nc(N)c2C#N)cc1OC`, > 79 µM (inactive). With `Cc1cc(C)cc(OCC(=O)Nc2cccc(-c3nc4ncccc4o3)c2)c1`, the IC50 is > 79 µM (inactive).
